According to patent US10471139B2, “Toll-like receptor agonists” (The University of Kansas, priority 2013, dated 2019):
Like-named read-outs stand apart in the source and are kept apart here.

Biological target: T1, human TLR7 (Homo sapiens, UniProt Q9NYK1)
T1 construct: expressed in transfected cells; host or cells: HEK293 (HEK-Blue-7)
T1 sequence (Q9NYK1 27-1049): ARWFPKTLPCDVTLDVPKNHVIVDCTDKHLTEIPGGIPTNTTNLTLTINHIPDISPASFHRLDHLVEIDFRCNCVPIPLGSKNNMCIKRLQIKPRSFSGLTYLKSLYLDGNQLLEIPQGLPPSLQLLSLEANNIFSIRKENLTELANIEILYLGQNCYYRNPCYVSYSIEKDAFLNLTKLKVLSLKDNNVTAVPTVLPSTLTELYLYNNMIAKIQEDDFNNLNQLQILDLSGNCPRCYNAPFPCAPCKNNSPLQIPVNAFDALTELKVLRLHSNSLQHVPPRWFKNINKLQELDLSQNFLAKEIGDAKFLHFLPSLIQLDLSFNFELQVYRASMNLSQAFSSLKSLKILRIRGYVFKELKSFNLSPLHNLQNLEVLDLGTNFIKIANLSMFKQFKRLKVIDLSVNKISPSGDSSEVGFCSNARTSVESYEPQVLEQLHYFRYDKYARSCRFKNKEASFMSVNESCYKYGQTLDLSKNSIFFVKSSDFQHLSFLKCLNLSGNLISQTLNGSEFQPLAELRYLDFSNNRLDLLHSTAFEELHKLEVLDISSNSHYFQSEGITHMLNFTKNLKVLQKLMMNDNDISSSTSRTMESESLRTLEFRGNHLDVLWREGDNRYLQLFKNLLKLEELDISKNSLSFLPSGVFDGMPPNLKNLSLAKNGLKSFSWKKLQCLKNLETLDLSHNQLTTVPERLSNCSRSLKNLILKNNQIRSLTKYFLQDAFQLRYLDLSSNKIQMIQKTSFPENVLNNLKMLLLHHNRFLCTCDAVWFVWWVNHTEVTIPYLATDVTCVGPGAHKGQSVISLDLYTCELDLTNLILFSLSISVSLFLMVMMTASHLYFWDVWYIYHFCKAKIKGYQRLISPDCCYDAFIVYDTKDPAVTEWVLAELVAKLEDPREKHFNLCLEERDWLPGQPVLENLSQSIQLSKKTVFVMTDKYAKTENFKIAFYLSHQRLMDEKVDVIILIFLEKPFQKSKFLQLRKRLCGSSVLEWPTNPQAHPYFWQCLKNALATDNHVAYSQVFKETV
Test: Human TLR7 reporter gene assay (NF-κB induction), HEK-Blue-7 cells
Type: cell-based

[1] = human TLR7-specific reporter gene assay, Inactive = no activity up to 500 μg/mL
[2] = human TLR7-specific reporter gene assay, Inactive = no activity up to 500 μg/mL, read-out: hTLR7-agonistic Activity (EC50)

Description: Human TLR-7/-8 Reporter Gene Assays (NF-κB Induction).
The induction of NF-κB was quantified using HEK-Blue-7 (hTLR7-specific) and HEK-Blue-8 (hTLR8-specific) cells. HEK293 cells stably co-transfected with human TLR7 or human TLR8, MD2, and secreted alkaline phosphatase (sAP), were maintained in HEK-Blue™ Selection medium containing zeocin and normocin. Stable expression of secreted alkaline phosphatase (sAP) under control of NF-κB/AP-1 promoters is inducible by appropriate TLR agonists, and extracellular sAP in the supernatant is proportional to NF-κB induction.
HEK293 cells stably co-transfected with the appropriate hTLR (or NOD) and secreted alkaline phosphatase (sAP) were maintained in HEK-Blue™ Selection medium. Stable expression of secreted alkaline phosphatase (sAP) under control of NF-κB/AP-1 promoters is inducible by appropriate TLR/NOD agonists, and extracellular sAP in the supernatant is proportional to NF-κB induction.

Row | SMILES | hTLR7-agonistic Activity (EC50) [1] | EC50 [2] [nM] | also measured
1 | CCCCc1nc2c(N)nc(Cl)cc2n1Cc1ccccc1 [Compound 17, 1-Benzyl-2-butyl-6-chloro-1H-imidazo[4,5-c]pyridin-4-amine] | Inactive |  | TLR7-specific agonistic activity EC50 (primary screen): inactive
2 | CCCCc1nc2c(N)nc(N)cc2n1Cc1ccccc1 [Compound 19a, 1-Benzyl-2-butyl-1H-imidazo[4,5-c]pyridine-4,6-diamine] |  | 1250 | 
3 | CCCCNc1cc2c(nc(CCCC)n2Cc2ccccc2)c(N)n1 [Compound 19b, 1-Benzyl-N^6,2-dibutyl-1H-imidazo[4,5-c]pyridine-4,6-diamine] |  | 340 | 
4 | CCCCCCCNc1cc2c(nc(CCCC)n2Cc2ccccc2)c(N)n1 [Compound 19c, 1-Benzyl-2-butyl-N^6-heptyl-1H-imidazo[4,5-c]pyridine-4,6-diamine] |  | 760 | 
5 | CCCCc1nc2c(N)nc(Nc3ccccc3)cc2n1Cc1ccccc1 [Compound 19e, 1-Benzyl-2-butyl-N^6-phenyl-1H-imidazo[4,5-c]pyridine-4,6-diamine] |  | 1720 | 
6 | CCCCc1nc2c(N)nc(NCc3ccccc3)cc2n1Cc1ccccc1 [Compound 19f, N^6,1-Dibenzyl-2-butyl-1H-imidazo[4,5-c]pyridine-4,6-diamine] |  | 210 | TLR7-agonistic potency relative to compound 5 (fold over compound 5): ~7.6
7 | CCCCc1nc2c(N)nc(NCc3cccc(OC)c3)cc2n1Cc1ccccc1 [Compound 19h, 1-Benzyl-2-butyl-N^6-(3-methoxybenzyl)-1H-imidazo[4,5-c]pyridine-4,6-diamine] |  | 610 | 
8 | CCCCc1nc2c(N)nc(NCc3ccc(C(F)(F)F)cc3)cc2n1Cc1ccccc1 [Compound 19i, 1-Benzyl-2-butyl-N^6-(4-(trifluoromethyl)benzyl)-1H-imidazo[4,5-c]pyridine-4,6-diamine] |  | 1040 | 
9 | CCCCc1nc2c(N)nc(NCc3ccc(Cl)cc3)cc2n1Cc1ccccc1 [Compound 19j, 1-Benzyl-2-butyl-N^6-(4-chlorobenzyl)-1H-imidazo[4,5-c]pyridine-4,6-diamine] |  | 640 | 
10 | CCCCc1nc2c(N)nc(NCc3ccncc3)cc2n1Cc1ccccc1 [Compound 19l, 1-Benzyl-2-butyl-N^6-(pyridin-4-ylmethyl)-1H-imidazo[4,5-c]pyridine-4,6-diamine] |  | 250 | 
11 | CCCCc1nc2c(N)nc(NCc3cccc4ccccc34)cc2n1Cc1ccccc1 [Compound 19n, 1-Benzyl-2-butyl-N^6-(naphthalen-1-ylmethyl)-1H-imidazo[4,5-c]pyridine-4,6-diamine] | Inactive |  | TLR7-specific agonistic activity EC50 (primary screen): quiescent
12 | CCCCc1nc2c(N)nc(NCc3ccc(-c4ccccc4)cc3)cc2n1Cc1ccccc1 [Compound 19o, N^6-([1,1′-Biphenyl]-4-ylmethyl)-1-benzyl-2-butyl-1H-imidazo[4,5-c]pyridine-4,6-diamine] |  | 1090 | TLR7-specific agonistic activity EC50 (primary screen): active
13 | CCCCc1nc2c(N)nc(NCc3cccc(CN)c3)cc2n1Cc1ccccc1 [Compound 19q, N^6-(3-(aminomethyl)benzyl)-1-benzyl-2-butyl-1H-imidazo[4,5-c]pyridine-4,6-diamine] |  |  | EC50 (primary screen, read-out: TLR7-specific agonistic activity EC50): 370 nM
14 | CCCCc1nc2c(N)nc(NCc3ccc(CNc4cc5c(nc(CCCC)n5Cc5ccccc5)c(N)n4)cc3)cc2n1Cc1ccccc1 [Compound 19r, N^6,N^6′-(1,4-phenylenebis(methylene))bis(1-benzyl-2-butyl-1H-imidazo[4,5-c]pyridine-4,6-diamine)] |  | 1080 | 
15 | CCCCc1nc2c(N)nc(NCc3cccc(CNc4cc5c(nc(CCCC)n5Cc5ccccc5)c(N)n4)c3)cc2n1Cc1ccccc1 [Compound 19s, N^6,N^6′-(1,3-phenylenebis(methylene))bis(1-benzyl-2-butyl-1H-imidazo[4,5-c]pyridine-4,6-diamine)] | Inactive |  | 
16 | CCCCc1cc2c(nc(CCCC)n2Cc2ccccc2)c(N)n1 [Compound 23a, 1-Benzyl-2,6-dibutyl-1H-imidazo[4,5-c]pyridin-4-amine] |  | 280 | 
17 | CCCCc1nc2c(N)nc(-c3ccccc3)cc2n1Cc1ccccc1 [Compound 23b, 1-Benzyl-2-butyl-6-phenyl-1H-imidazo[4,5-c]pyridin-4-amine] | Inactive |  | 
18 | CCCCc1nc2c(N)nc(-c3ccc(C(N)=O)cc3)cc2n1Cc1ccccc1 [Compound 23c, 4-(4-Amino-1-benzyl-2-butyl-1H-imidazo[4,5-c]pyridin-6-yl)benzamide] | Inactive |  | 
19 | CCCCc1nc2c(N)nc(-c3cccnc3)cc2n1Cc1ccccc1 [Compound 23d, 1-Benzyl-2-butyl-6-(pyridin-3-yl)-1H-imidazo[4,5-c]pyridin-4-amine] | Inactive |  | 
20 | CCCCc1nc2c(N)nc(-c3ccoc3)cc2n1Cc1ccccc1 [Compound 23e, 1-Benzyl-2-butyl-6-(furan-3-yl)-1H-imidazo[4,5-c]pyridin-4-amine] | Inactive |  | 
21 | CCCCc1nc2c(N)nc(-c3ccsc3)cc2n1Cc1ccccc1 [Compound 23f, 1-Benzyl-2-butyl-6-(thiophen-3-yl)-1H-imidazo[4,5-c]pyridin-4-amine] | Inactive |  | 
22 | CCCCc1nc2c(N)nc(Cc3ccccc3)cc2n1Cc1ccccc1 [Compound 23g, 1,6-Dibenzyl-2-butyl-1H-imidazo[4,5-c]pyridin-4-amine] |  | 280 | TLR7-specific agonistic activity EC50 (primary screen): restored
23 | CCCCc1nc2c(N)nc(Cc3ccc(C)cc3)cc2n1Cc1ccccc1 [Compound 23h, 1-Benzyl-2-butyl-6-(4-methylbenzyl)-1H-imidazo[4,5-c]pyridin-4-amine] |  | 1800 | 
24 | CCCCc1nc2c(N)nc(Cc3ccc(OC(F)(F)F)cc3)cc2n1Cc1ccccc1 [Compound 23i, 1-Benzyl-2-butyl-6-(4-(trifluoromethoxy)benzyl)-1H-imidazo[4,5-c]pyridin-4-amine] | Inactive |  | 
25 | CCCCc1nc2c(N)nc(CCc3ccccc3)cc2n1Cc1ccccc1 [Compound 23j, 1-Benzyl-2-butyl-6-phenethyl-1H-imidazo[4,5-c]pyridin-4-amine] |  | 570 | TLR7-specific agonistic activity EC50 (primary screen): restored
